{"source": "ChEMBL document CHEMBL1201862", "about": "“PubChem BioAssay data set” (2004)", "assay_in_all_cases": "NCI-60 cell line screen, 48 h", "key": {"BT-549": {"system": "BT-549"}, "DLD-1": {"system": "DLD-1"}, "HOP-18": {"system": "HOP-18"}, "XF498": {"system": "XF498"}, "RXF 631": {"system": "RXF 631"}, "KM-20L2": {"system": "KM-20L2"}, "SNB-78": {"system": "SNB-78"}, "DMS-273": {"system": "DMS-273"}, "LXFL 529": {"system": "LXFL 529"}}, "note": "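Dose response: 5 concentrations. Exposure: 48 h. Format: 96-well plates. Endpoint: linear interpolation; highest concentration if not reached. The concentration for 50% growth inhibition is given as GI50.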 Activity calls are given as the source filed them. Rule as the data show it: active = GI50 up to about 1.1 µM and inactive = higher."}
{"smiles": "O=C(Cc1cc(=O)oc2cc(O)ccc12)N/N=C/c1ccc(N(CCCl)CCCl)cc1", "values": [{"measurement": "GI50", "setting": "BT-549", "value": "16.4 µM (inactive)"}]}
{"smiles": "CCOc1ccc(NC(=O)C(=O)CC(=O)C2=C(C)Nc3ccccc3S2)cc1", "values": [{"measurement": "GI50", "setting": "DLD-1", "value": "> 50 µM (inactive)"}, {"measurement": "GI50", "setting": "HOP-18", "value": "> 50 µM (inactive)"}, {"measurement": "GI50", "setting": "XF498", "value": "> 50 µM (inactive)"}, {"measurement": "GI50", "setting": "RXF 631", "value": "> 50 µM (inactive)"}, {"measurement": "GI50", "setting": "KM-20L2", "value": "> 50 µM (inactive)"}]}
{"smiles": "COc1cc(C=O)c(-c2cc(OC)c(OC)cc2C=O)cc1OC", "values": [{"measurement": "GI50", "setting": "SNB-78", "value": "> 100 µM (inactive)"}, {"measurement": "GI50", "setting": "DLD-1", "value": "65 µM (inactive)"}, {"measurement": "GI50", "setting": "DMS-273", "value": "> 100 µM (inactive)"}, {"measurement": "GI50", "setting": "LXFL 529", "value": "> 100 µM (inactive)"}, {"measurement": "GI50", "setting": "HOP-18", "value": "> 100 µM (inactive)"}, {"measurement": "GI50", "setting": "KM-20L2", "value": "> 100 µM (inactive)"}]}
{"smiles": "Cc1ccc2[nH]c(=O)c(-c3cnc(O)nn3)c(O)c2c1", "values": [{"measurement": "GI50", "setting": "BT-549", "value": "80.2 µM (inactive)"}]}
{"smiles": "O=c1oc2c(O)c(O)c(O)c3c(=O)oc4c(O)c(O)cc1c4c23", "note": "[FLAVELLAGIC ACID]", "values": [{"measurement": "GI50", "setting": "SNB-78", "value": "> 100 µM (inactive)"}, {"measurement": "GI50", "setting": "DLD-1", "value": "> 100 µM (inactive)"}, {"measurement": "GI50", "setting": "DMS-273", "value": "85.1 µM (inactive)"}, {"measurement": "GI50", "setting": "LXFL 529", "value": "73.1 µM (inactive)"}, {"measurement": "GI50", "setting": "HOP-18", "value": "> 100 µM (inactive)"}, {"measurement": "GI50", "setting": "KM-20L2", "value": "> 100 µM (inactive)"}]}
{"smiles": "COc1cc(/C=C/C=C2\\CCC/C(=C\\C=C\\c3ccc(O)c(OC)c3)C2=O)ccc1O", "values": [{"measurement": "GI50", "setting": "BT-549", "value": "17.2 µM (inactive)"}]}
{"smiles": "COC(=O)[C@H](C)N1C(=O)N[C@@H](C(C)C)C1=O", "values": [{"measurement": "GI50", "setting": "BT-549", "value": "> 100 µM (inactive)"}]}
{"smiles": "CCC(=O)OCc1ccc2oc(=O)c(C(=O)Oc3cncc(Cl)c3)cc2c1", "values": [{"measurement": "GI50", "setting": "BT-549", "value": "> 100 µM (inactive)"}]}
{"smiles": "CN1CCN(Cc2ccccc2)CC1CC#N", "note": "(stereo unspecified)", "values": [{"measurement": "GI50", "setting": "BT-549", "value": "> 100 µM (inactive)"}]}
{"smiles": "COc1ccc(C(=O)C(CC2C(=O)CC(C)(C)C(C(=O)C(=O)Nc3c(C)cccc3C)C2=O)c2ccc(OC)cc2)cc1", "note": "(stereo unspecified)", "values": [{"measurement": "GI50", "setting": "BT-549", "value": "> 100 µM (inactive)"}]}
{"smiles": "CCCCCC(C)C[C@H]1CO[C@H](c2ccc[nH]2)N[C@H]1C(=O)OC", "note": "(stereo partly specified)", "values": [{"measurement": "GI50", "setting": "BT-549", "value": "> 100 µM (inactive)"}]}
{"smiles": "COC(=O)/C=C1/N=C(N(C)/N=C/c2ccccc2)NC1=O", "values": [{"measurement": "GI50", "setting": "BT-549", "value": "> 100 µM (inactive)"}]}
{"smiles": "Cc1cc2[nH]c3c(C#N)c(-c4ccccc4)c(/C=N/c4ccc(F)cc4)c(=O)n3c2cc1C", "values": [{"measurement": "GI50", "setting": "BT-549", "value": "> 100 µM (inactive)"}]}
{"smiles": "CCN(CC)c1c(C(=O)/C=C/c2ccc(Cl)cc2)c(-c2ccccc2)nn(C)c1=O", "values": [{"measurement": "GI50", "setting": "SNB-78", "value": "2.61 µM (inactive)"}, {"measurement": "GI50", "setting": "DLD-1", "value": "1.73 µM (inactive)"}, {"measurement": "GI50", "setting": "DMS-273", "value": "1.71 µM (inactive)"}, {"measurement": "GI50", "setting": "LXFL 529", "value": "1.85 µM (inactive)"}, {"measurement": "GI50", "setting": "HOP-18", "value": "2.09 µM (inactive)"}, {"measurement": "GI50", "setting": "RXF 631", "value": "2.14 µM (inactive)"}, {"measurement": "GI50", "setting": "KM-20L2", "value": "2.47 µM (inactive)"}]}
{"smiles": "O=c1c2ccccc2[nH]c2ccc3c(Cl)n[nH]c3c12", "values": [{"measurement": "GI50", "setting": "SNB-78", "value": "55.3 µM (inactive)"}, {"measurement": "GI50", "setting": "DLD-1", "value": "19.5 µM (inactive)"}, {"measurement": "GI50", "setting": "DMS-273", "value": "40.3 µM (inactive)"}, {"measurement": "GI50", "setting": "LXFL 529", "value": "51.6 µM (inactive)"}, {"measurement": "GI50", "setting": "HOP-18", "value": "33.2 µM (inactive)"}, {"measurement": "GI50", "setting": "RXF 631", "value": "37.3 µM (inactive)"}, {"measurement": "GI50", "setting": "KM-20L2", "value": "51.9 µM (inactive)"}]}
{"smiles": "CN(C)c1ccc(/C=N/NC2=N/C(=C\\c3ccco3)C(=O)N2)cc1", "values": [{"measurement": "GI50", "setting": "BT-549", "value": "> 100 µM (inactive)"}]}
{"smiles": "CC1C(c2ccccc2O)c2cc3c(cc2OC1N1CCOCC1)OCO3", "note": "(stereo unspecified)", "values": [{"measurement": "GI50", "setting": "BT-549", "value": "27.4 µM (inactive)"}]}
{"smiles": "CCOC(=O)c1ccc(/N=C\\c2ccc(N(CCC#N)CCC#N)cc2)cc1", "values": [{"measurement": "GI50", "setting": "SNB-78", "value": "> 100 µM (inactive)"}, {"measurement": "GI50", "setting": "DLD-1", "value": "41.7 µM (inactive)"}, {"measurement": "GI50", "setting": "DMS-273", "value": "35.9 µM (inactive)"}, {"measurement": "GI50", "setting": "LXFL 529", "value": "20.8 µM (inactive)"}, {"measurement": "GI50", "setting": "XF498", "value": "> 100 µM (inactive)"}, {"measurement": "GI50", "setting": "RXF 631", "value": "> 100 µM (inactive)"}, {"measurement": "GI50", "setting": "KM-20L2", "value": "27.7 µM (inactive)"}]}
{"smiles": "Cc1oc2nc1C(=O)NCc1nc(cs1)C(=O)N[C@H](C(C)C)c1nc(cs1)C(=O)N[C@H]2C", "values": [{"measurement": "GI50", "setting": "BT-549", "value": "> 100 µM (inactive)"}]}
{"smiles": "CC(=O)NNc1nc(C)c(C(=O)/C=C/c2ccc(N(C)C)cc2)s1", "values": [{"measurement": "GI50", "setting": "SNB-78", "value": "> 100 µM (inactive)"}, {"measurement": "GI50", "setting": "DLD-1", "value": "> 100 µM (inactive)"}, {"measurement": "GI50", "setting": "DMS-273", "value": "> 100 µM (inactive)"}, {"measurement": "GI50", "setting": "HOP-18", "value": "> 100 µM (inactive)"}, {"measurement": "GI50", "setting": "RXF 631", "value": "> 100 µM (inactive)"}, {"measurement": "GI50", "setting": "KM-20L2", "value": "> 100 µM (inactive)"}]}
{"smiles": "Cc1cc(NS(=O)(=O)c2ccc(Nc3c4ccccc4nc4c(C(=O)NCCN(C)C)ccc(Cl)c34)cc2)no1", "values": [{"measurement": "GI50", "setting": "SNB-78", "value": "10.7 µM (inactive)"}, {"measurement": "GI50", "setting": "DLD-1", "value": "3.94 µM (inactive)"}, {"measurement": "GI50", "setting": "LXFL 529", "value": "4.67 µM (inactive)"}, {"measurement": "GI50", "setting": "XF498", "value": "13.8 µM (inactive)"}, {"measurement": "GI50", "setting": "RXF 631", "value": "0.851 µM (active)"}, {"measurement": "GI50", "setting": "KM-20L2", "value": "11 µM (inactive)"}]}
{"smiles": "Nc1nc(NC2C=C(CO)C(O)C2O)c([N+](=O)[O-])c(=O)[nH]1", "note": "(stereo unspecified)", "values": [{"measurement": "GI50", "setting": "SNB-78", "value": "> 100 µM (inactive)"}, {"measurement": "GI50", "setting": "DLD-1", "value": "> 100 µM (inactive)"}, {"measurement": "GI50", "setting": "DMS-273", "value": "> 100 µM (inactive)"}, {"measurement": "GI50", "setting": "LXFL 529", "value": "> 100 µM (inactive)"}, {"measurement": "GI50", "setting": "HOP-18", "value": "> 100 µM (inactive)"}, {"measurement": "GI50", "setting": "XF498", "value": "> 100 µM (inactive)"}, {"measurement": "GI50", "setting": "KM-20L2", "value": "> 100 µM (inactive)"}]}
{"smiles": "NC(CP(=O)(O)O)C(=O)O", "note": "(stereo unspecified)", "values": [{"measurement": "GI50", "setting": "BT-549", "value": "> 100 µM (inactive)"}]}
{"smiles": "O=C(/C=C/c1ccccc1)Oc1ccc(C(=O)/C=C/c2ccccc2)cc1", "values": [{"measurement": "GI50", "setting": "BT-549", "value": "6.49 µM (inactive)"}]}
{"smiles": "C[C@]12CC[C@H]3[C@@H](CC=C4C[C@@H](N5CCCC5)CC[C@@]43C)[C@@H]1C/C(=C\\c1ccc([N+](=O)[O-])cc1)[C@@H]2O", "values": [{"measurement": "GI50", "setting": "BT-549", "value": "13.5 µM (inactive)"}]}
{"smiles": "Cc1ccc(C2=C(c3ccccc3)C(O)(c3ccc(C)cc3)C(c3ccccc3)=C2c2ccc(C)cc2)cc1", "values": [{"measurement": "GI50", "setting": "SNB-78", "value": "> 100 µM (inactive)"}, {"measurement": "GI50", "setting": "DLD-1", "value": "> 100 µM (inactive)"}, {"measurement": "GI50", "setting": "DMS-273", "value": "> 100 µM (inactive)"}, {"measurement": "GI50", "setting": "LXFL 529", "value": "60.1 µM (inactive)"}, {"measurement": "GI50", "setting": "XF498", "value": "> 100 µM (inactive)"}, {"measurement": "GI50", "setting": "KM-20L2", "value": "> 100 µM (inactive)"}]}
{"smiles": "CN(C)CCc1c2c(nc3ccccc13)C(=O)c1cccnc1C2=O", "values": [{"measurement": "GI50", "setting": "BT-549", "value": "0.268 µM (active)"}]}
{"smiles": "CN1C[C@@H]2CCCN2P1Oc1cccc2cccnc12", "note": "(stereo partly specified)", "values": [{"measurement": "GI50", "setting": "BT-549", "value": "> 100 µM (inactive)"}]}
